Results taken from patent publication US20190373887A1, “ENCAPSULATED MOLUSCICIDE” (INGWERMAT LIMITED, priority 2015, published 2019).

Legend:
[1] = cited from earlier work; for VP: at 25 deg C.; for Water solubility: at 25 C.
rats [2] = conditions: cited from earlier work
[3] = test system: Common garden slugs (Arion distinctus); assay: slug mucosal contact test (mucus production and body weight loss); type: in vivo; conditions: for Mucus loss initial test / Mucus loss 24 test: 30-min contact, % of body weight; for Mucus loss initial test: 60 mg test substance, mean n = 6, initial treatment; for Mucus loss 24 test: second treatment 24 hours later; for Mucus loss 24 test / Remaining body weight after 24 h and 48 h: mean n = 6; for Potency - loss of body weight relative to metaldehyde after deduction of weight loss from the control: after 48 hours; for Potency - loss of body weight relative to metaldehyde after deduction of weight loss from the control / Potency - loss of mucus relative to metaldehyde: metaldehyde = 100; for Combined mucus loss: combined losses of mucus for the two tests; for toxicity in mollusc foot contact tests relative to metaldehyde: contact with the mucus membrane of molluscs; for Potency - loss of mucus relative to metaldehyde: from combined mucus loss; for Remaining body weight after 24 h and 48 h: percentage of the initial body weight; for Reduction in toxic response relative to metaldehyde: Loss of body weight (Table 3) / Reduction in toxic response relative to metaldehyde: Loss of mucus (Table 2): weight for weight basis
Experimental: To investigate relative toxicity of aldehydes to molluscs, tests were conducted using a method adapted from Adriaens et al. The Mucosal Toxicity of Different Benzalkonium Chloride Analogues Evaluated with an Alternative Test. Pharmaceutical Research, Vol. 18, pages 937-941, 2001.
Common garden slugs (Arion distinctus) weighing between 1.9 g and 5.2 g were collected from a UK suburban garden and placed into vented plastic boxes lined with paper towels moistened with phosphate buffered saline. The boxes were kept in the shade inside a greenhouse (10° C. minimum) and fed with lettuce and commercial dog food. Experiments were conducted on six slugs for each test treatment using petri dishes containing Whitman Grade 1 general purpose filter papers (90 mm diameter). Filter papers were wetted to saturation with phosphate buffered saline (pH 7.4) and allowed to drain before placing in the petri dishes. At the beginning of each test slugs were placed individually in a petri dish which had been prepared 3 hours previously as a control or with 60 mg of the test substance consisting of fine powdered metaldehyde or a liquid aldehyde. After 30-min incubation slugs were removed and returned to petri dishes with filter papers wetted only with the phosphate buffered saline. The slugs were weighed separately before and after treatment. The change in weight caused by the treatment was calculated and expressed as % (w/w) of the body weight. The petri dishes containing the test medium were also weighed before and after the treatment. The weight of mucus produced was calculated and expressed as % (w/w) of the body weight. The treatment and measurements were repeated 24 hour later and final weights taken after a second 24 hour period.

rats [4] = assay: acute oral toxicity in rats (LD50); type: in vivo, rat; conditions: weight for weight basis

Compound	VP [1]	Water solubility [1]	LD50 acute oral toxicity (rats [2])	Mucus loss initial test [3]	Mucus loss 24 test [3]	Potency - loss of body weight relative to metaldehyde after deduction of weight loss from the control [3]	Combined mucus loss [3]	toxicity in mollusc foot contact tests relative to metaldehyde [3]	Potency - loss of mucus relative to metaldehyde [3]	Remaining body weight after 24 h and 48 h ([3]; 24 h after initial treatment)	Remaining body weight after 24 h and 48 h ([3]; 48 h after initial treatment)	Reduction in toxic response relative to metaldehyde: Loss of body weight (Table 3) [3]	Reduction in toxic response relative to metaldehyde: Loss of mucus (Table 2) [3]	oral toxicity in rats lower relative to metaldehyde (rats [4])
CCCCCC=O [Hexanal]	9.57 mm Hg													
CC1OC(C)OC(C)O1 (stereo not shown) [Paraldehyde, reference compound]	15.7 mm Hg	24140 mg/L	LD 50 2711 mg/kg											
CCCCCCC=O [1-heptanal]	3.52 mm Hg	1167 mg/L	LD50 > 5000 mg/kg	2.77 % w/w	0.55 % w/w	33%	3.32 % w/w	less than single fold reductions	35%	85.2 wt %	76.5 wt %	0.35	0.35	approximately 8 fold
CCC=O [Propanal, reference compound]	317 mm Hg													
CC=O [Acetaldehyde, reference compound]	902 mm Hg		LD50 661 mg/kg											
CCCCCCCCCC=O [1-decanal]	0.235 mm Hg	43.52 mg/L	LD 50 3096 mg/kg	3.28 % w/w	2.64 % w/w	40%	5.92 % w/w	less than single fold reductions	62%	79.7 wt %	74.1 wt %	0.40	0.62	approximately 8 fold
CCCCCCCC=O [1-octanal]	1.49 mm Hg	394.3 mg/L	LD 50 4616 mg/kg	3.82 % w/w	2.98 % w/w	58%	6.8 % w/w	less than single fold reductions	72%	78.6 wt %	68.7 wt %	0.58	0.72	approximately 8 fold
CCCCCCCCC=O [1-nonanal]	0.564 mm Hg		LD 50 > 5000 mg/kg											
CCCC=O [Butanal]	108 mm Hg													
CC1OC(C)OC(C)OC(C)O1 (stereo not shown) [Metaldehyde, reference compound]	0.000674 mm Hg		LD50 630 mg/kg	5.55 % w/w	3.94 % w/w	100%	9.49 % w/w		100%	68.5 wt %	55.4 wt %			
